Data as given in US20220265817A1, “THERAPEUTIC COMPOSITIONS AND METHODS FOR TREATING HEPATITIS B” (priority 2017, published 2022).
Several values for one entry are separate records, joined by “and”; a condition that tells them apart may be missing. Equal entries are not always repeated. Where two headings read alike, the source gives them in different places.

System: D type HBV in primary human hepatocytes (HBsAg)
Test: microbe, parasite or virus in culture
Format: cell-based
Description: The mouse liver perfusion was applied to isolate PHHs. The isolated hepatocytes were further purified by Percoll. The cells were resuspended with culture media and seeded into the 96-well plates (6×10^4 cell/well) or 48-well plates (1.2×10^5 cell/well). The PHHs were infected with a D type HBV one day post seeding (day 1).
On day 2, the test compounds were diluted and added into the cell culture plates. The culture media containing the compounds were refreshed every other day. The cell culture supernatants were collected on day 8 for the HBV DNA and antigen determinations.
The compounds were tested at 7 concentrations, 3-fold dilution, in triplicate.
Two compounds were tested at 5×5 matrix, in triplicate plates.
HBsAg/HBeAg in the culture supernatants harvested on days 8 were measured by the HBsAg/HBeAg ELISA kit (Autobio) according to the manual. The samples were diluted with PBS to get the signal in the range of the standard curve. The inhibition rates were calculated with the formula below. The combination effect was analyzed by the MacSynergy software.
% Inh. HBsAg=[1-HBsAg quantity of sample/HBV quantity of DMSO control]×100.

For `O=C(Nc1ccc(F)c(F)c1)c1cc(S(=O)(=O)NC2CCCC2)ccc1F` [Compound 22], which inhibition at 0.06173 µM (Hepatitis B virus, Hepatocyte, read-out: AVERAGE % INHIBITION HBsAg, COMPOUND 22 61.73 nM alone) is on record?
The inhibition at 0.06173 µM was -9.16%.

What about the inhibition at 0.18519 µM (Hepatitis B virus, Hepatocyte, read-out: AVERAGE % INHIBITION HBsAg, COMPOUND 22 185.19 nM alone) of the same compound?
Its inhibition at 0.18519 µM is -10.2%.

And the inhibition at 0.55556 µM (Hepatitis B virus, Hepatocyte, read-out: AVERAGE % INHIBITION HBsAg, COMPOUND 22 555.56 nM alone)?
Its inhibition at 0.55556 µM is -3.82%.

And the inhibition at 1.66667 µM (Hepatitis B virus, Hepatocyte, read-out: AVERAGE % INHIBITION HBsAg, COMPOUND 22 1666.67 nM alone)?
Its inhibition at 1.66667 µM is 20.6%.

What about the inhibition at 5 µM (Hepatitis B virus, Hepatocyte, read-out: AVERAGE % INHIBITION HBsAg, COMPOUND 22 5000.00 nM alone) of the same compound?
Its inhibition at 5 µM is 31%.

And the inhibition at 61.73 µM (Hepatitis B virus, Hepatocyte, read-out: AVERAGE % INHIBITION, IFNα2a 0.00 IU/mL, COMPOUND 22 61.73 μM)?
Its inhibition at 61.73 µM is -13.8%.

And the inhibition at 185.19 µM (Hepatitis B virus, Hepatocyte, read-out: AVERAGE % INHIBITION, IFNα2a 0.00 IU/mL, COMPOUND 22 185.19 μM)?
The inhibition at 185.19 µM was -10.6%.

And the inhibition at 555.56 µM (Hepatitis B virus, Hepatocyte, read-out: AVERAGE % INHIBITION, IFNα2a 0.00 IU/mL, COMPOUND 22 555.56 μM)?
Its inhibition at 555.56 µM is -5.08%.

And the inhibition at 1666.67 µM (Hepatitis B virus, Hepatocyte, read-out: AVERAGE % INHIBITION, IFNα2a 0.00 IU/mL, COMPOUND 22 1666.67 μM)?
Its inhibition at 1666.67 µM is 10.3%.

And the inhibition at 5000 µM (Hepatitis B virus, Hepatocyte, read-out: AVERAGE % INHIBITION, IFNα2a 0.00 IU/mL, COMPOUND 22 5000.00 μM)?
Its inhibition at 5000 µM is 23.1%.

And the inhibition at 0.061728 µM (Hepatitis B virus, Hepatocyte, read-out: AVERAGE % INHIBITION, TAF 0 nM, COMPOUND 22 61.728 nM)?
The inhibition at 0.061728 µM was -0.32%.

And the inhibition at 0.18519 µM (Hepatitis B virus, Hepatocyte, read-out: AVERAGE % INHIBITION, TAF 0 nM, COMPOUND 22 185.19 nM)?
The inhibition at 0.18519 µM was 2.37%.

And the inhibition at 0.55556 µM (Hepatitis B virus, Hepatocyte, read-out: AVERAGE % INHIBITION, TAF 0 nM, COMPOUND 22 555.56 nM)?
Its inhibition at 0.55556 µM is -2.17%.

What about the inhibition at 1.6667 µM (Hepatitis B virus, Hepatocyte, read-out: AVERAGE % INHIBITION, TAF 0 nM, COMPOUND 22 1666.7 nM) of the same compound?
The inhibition at 1.6667 µM was 17.7%.

And the inhibition at 5 µM (Hepatitis B virus, Hepatocyte, read-out: AVERAGE % INHIBITION, TAF 0 nM, COMPOUND 22 5000 nM)?
The inhibition at 5 µM was 20.7%.

What about the EC50 (Hepatitis B virus, Hepatocyte, read-out: Inhibitor B EC50 HBsAg) of the same compound?
Its EC50 is 12.8 µM.

What about the EC50 (Hepatitis B virus, Hepatocyte, read-out: Inhibitor EC50) of the same compound?
The EC50 was 12.8 µM.

How did the “AVERAGE % INHIBITION (HBsAg)” value (3 replicates, Compound 24 0.00 nM, TDF nM: 10.00, 3.33, 1.11, 0.37, 0.12) turn out when `CC(C)OC(=O)OCOP(=O)(CO[C@H](C)Cn1cnc2c(N)ncnc21)OCOC(=O)OC(C)C.O=C(O)/C=C/C(=O)O` [TDF, tenofovir disoproxil fumarate, reference compound] was run?
Its value is −3.32% and −3.31% and −6.65% and −1.28% and −3.54%.

And the inhibition at 0.00012 µM (Hepatitis B virus, Hepatocyte, TDF 0.12 nM alone, read-out: AVERAGE % INHIBITION HBsAg)?
The inhibition at 0.00012 µM was 3.39%.

What about the inhibition at 0.00037 µM (Hepatitis B virus, Hepatocyte, TDF 0.37 nM alone, read-out: AVERAGE % INHIBITION HBsAg) of the same compound?
Its inhibition at 0.00037 µM is -0.3%.

And the inhibition at 0.00333 µM (Hepatitis B virus, Hepatocyte, read-out: AVERAGE % INHIBITION HBsAg, TDF 3.33 nM alone)?
The inhibition at 0.00333 µM was -0.9%.

And the inhibition at 0.01 µM (Hepatitis B virus, Hepatocyte, read-out: AVERAGE % INHIBITION HBsAg, TDF 10.00 nM alone)?
The inhibition at 0.01 µM was -5.9%.

What about the EC50 (Hepatitis B virus, Hepatocyte, read-out: Inhibitor A EC50) of the same compound?
Its EC50 is greater than 0.1 µM.

What about the “ADDITIVE INHIBITION (HBsAg)” value (expected from additive interaction, Compound 24 0.00 nM, TDF nM by row: r27 10.00, r28 3.33, r29 1.11, r30 0.37, r31 0.12) of the same compound?
The value was −6.65% and −1.28% and −3.54% and −3.32% and −3.31%.
